Here are results for two molecules from patent US9938510B2, “Photobacterium sp. alpha-2-6-sialyltransferase variants” (The Regents of the University of California, priority 2014, dated 2018).

Data set [1] concerns the target Photobacterium sp. JH-ISH-224 α2-6-sialyltransferase Psp2,6ST(15-501)-His6, wild type, SEQ ID NO: 23 (Photobacterium sp. JT-ISH-224, UniProt A8QYL1). As to the kind of experiment: Donor hydrolysis kinetics (CMP-Neu5Ac hydrolysis), wild-type Psp2,6ST(15-501)-His6. Type of data set: biochemical. The settings on record: apparent, 20° C., 10 min, Tris-HCl pH 8.0. Here is the method: (§1) Procedure for Kinetic Analysis of Donor Hydrolysis by His6-Pd2,6ST(16-497), Psp26ST(15-501)-His6 and its A235D and A366G Mutants
(§2) The kinetics study for the donor hydrolysis activity of His6-Pd2,6ST(16-497) was carried out at 37° C. for 20 min in Tris-HCl buffer (200 mM, pH 8.0). The kinetics study for the donor hydrolysis activities of Psp26ST(15-501)-His6 and its A235D mutant was carried out at 20° C. for 10 min in Tris-HCl buffer (200 mM, pH 8.0). All reactions were performed in duplicate in a total volume of 10 μL containing varied concentrations of CMP-Neu5Ac (10, 20, 40, 60, 80 and 100 mM) and the enzyme (6 μM). Reactions were stopped by adding 10 μL of ethanol and then centrifuged. The supernatants were analyzed by a P/ACETM capillary electrophoresis (CE) system equipped with a photodiode array (PDA) detector (Beckman Coulter, Inc., Fullerton, Calif.). CE conditions were as follows: 75 μm i.d. capillary, 25 KV/80μÅ, 5 s vacuum injections, monitored at 200 nm and 254 nm, the running buffer used was sodium tetraborate (25 mM, pH 9.4). Apparent kinetic parameters were obtained by fitting the experimental data (the average values of duplicate assay results) into the Michaelis-Menten equation using Grafit 5.0.

In data set [2] the test system is Photobacterium sp. JH-ISH-224 α2-6-sialyltransferase Psp26ST(15-501)-His6, wild type, SEQ ID NO: 23. Conditions: apparent, donor CMP-Neu5Ac, cited from earlier work.
Data set [3] has as its system Photobacterium sp. JH-ISH-224 α2-6-sialyltransferase Psp26ST(15-501)-His6 A366G mutant, SEQ ID NO: 2. In words: Sialyltransferase kinetics, Psp26ST(15-501)-His6 A366G mutant. It counts as biochemical. Conditions: apparent, varied CMP-Neu5Ac. Here is the method: Reactions were carried out in duplicate at 20° C. for 20 minutes in a total volume of 10 μL in a proper buffer at the optimal pH according to the pH profile of the wild-type enzyme (see, Ding, 2011, supra). When LacβMU was used as an acceptor, the conditions were: Tris-HCl buffer (200 mM, pH 8.0), enzyme (0.3 μM), varied concentrations of LacβMU (0.1, 0.25, 0.4, 1.0, 2.0, 4.0, and 6.0 mM) with a fixed concentration of CMP-Neu5Ac (1.0 mM) or varied concentrations of CMP-Neu5Ac (0.1, 0.25, 0.4, 1.0, 2.0, 4.0, and 6.0 mM) with a fixed concentration of LacβMU (1.0 mM). When GalNAcα2AA was used as an acceptor, the conditions were: NaOAc-HOAc buffer (200 mM, pH 5.0), enzyme (6 μM), varied concentrations of GalNAcα2AA (0.5, 0.8, 1.0, 2.0, 4.0, 8.0, and 10.0 mM) and a fixed concentration of CMP-Neu5Ac (4.0 mM) or varied concentrations of CMP-Neu5Ac (0.5, 1.0, 2.0, 4.0, 5.0, 8.0, and 10.0 mM) with a fixed concentration of GalNAcα2AA (1.0 mM). When GalNAcαSer was used as an acceptor, the conditions were: Tris-HCl buffer (200 mM, pH 8.0), enzyme (0.6 μM), varied concentrations of GalNAcαSer (0.1, 0.25, 0.5, 1.0, 2.0, 4.0, 8.0, and 10.0 mM) and a fixed concentration of CMP-Neu5Ac (2.0 mM). When GalNAcαThr was used as an acceptor, the conditions were: Tris-HCl buffer (200 mM, pH 8.0), enzyme (3.0 μM), varied concentrations of GalNAcαThr (0.5, 1.0, 2.0, 4.0, 10.0, 20.0, 40.0, 60.0 mM) and a fixed concentration of CMP-Neu5Ac (4.0 mM). Results analysis was performed using the HPLC system as described above for sialyltransferase activity assays. Apparent kinetic parameters were obtained by fitting the experimental data (the average values of duplicate assay results) into the Michaelis-Menten equation using Grafit 5.0.

Substrate in data set [4]: CC(=O)N[C@H]1[C@H]([C@H](O)[C@H](O)CO)O[C@](OP(=O)(O)OC[C@H]2O[C@@H](n3ccc(N)nc3=O)[C@H](O)[C@@H]2O)(C(=O)O)C[C@@H]1O
As to the kind of experiment: Donor hydrolysis kinetics (CMP-Neu5Ac hydrolysis), His6-Pd2,6ST(16-497). Type of data set: biochemical, Photobacterium damselae. Conditions: other: apparent, 37° C., 20 min, Tris-HCl pH 8.0, pH 2.6. Here is the method:
as §1, §2

Where [5] appears, read: GalNAcα2AA 1.0 mM, NaOAc-HOAc pH 5.0, 20° C.
Setting [6] is: LacβMU 1.0 mM, Tris-HCl pH 8.0, 20° C.

Like-named read-outs stand apart in the source and are kept apart here.

In general, kcat refers to the maximal rate divided by the concentration of active sites. What is called Km is the substrate concentration at which the rate is half of its maximum. Take `CC(=O)N[C@H]1[C@H]([C@H](O)[C@H](O)CO)O[C@](OP(=O)(O)OC[C@H]2O[C@@H](n3ccc(N)nc3=O)[C@H](O)[C@@H]2O)(C(=O)O)C[C@@H]1O` [CMP-Neu5Ac, cytidine 5′-monophosphate N-acetylneuraminic acid]: the kcat result is “(2.9 ± 0.3) × 10^2 min^−1” in data set [1]; 0.08 ± 0.0033 s⁻¹ in data set [2] (acceptor GalNAcα2AA); “(1.4 ± 0.1) × 10^2 min^−1” in data set [2] (acceptor LacβMU); 0.0983 ± 0.0033 s⁻¹ in data set [3] (setting [5]); “(1.3 ± 0.1) × 10^2 min^−1” in data set [3] (setting [6]). For the same molecule, the Km in data set [2] (acceptor GalNAcα2AA) is 3900 ± 400 µM; in data set [2] (acceptor LacβMU), 620 µM; in data set [3] (setting [5]), 3300 ± 400 µM; in data set [3] (setting [6]), 630 µM.

B1: Photobacterium damselae α2-6-sialyltransferase His6-Pd2,6ST(16-497) (Photobacterium damselae) (protein)
chain: CNSDNTSLKETVSSNSADVVETETYQLTPIDAPSSFLSHSWEQTCGTPILNESDKQAISFDFVAPELKQDEKYCFTFKGITGDHRYITNTTLTVVAPTLEVYIDHASLPSLQQLIHIIQAKDEYPSNQRFVSWKRVTVDADNANKLNIHTYPLKGNNTSPEMVAAIDEYAQSKNRLNIEFYTNTAHVFNNLPPIIQPLYNNEKVKISHISLYDDGSSEYVSLYQWKDTPNKIETLEGEVSLLANYLAGTSPDAPKGMGNRYNWHKLYDTDYYFLREDYLDVEANLHDLRDYLGSSAKQMPWDEFAKLSDSQQTLFLDIVGFDKEQLQQQYSQSPLPNFIFTGTTTWAGGETKEYYAQQQVNVINNAINETSPYYLGKDYDLFFKGHPAGGVINDIILGSFPDMINIPAKISFEVLMMTDMLPDTVAGIASSLYFTIPADKVNFIVFTSSDTITDREEALKSPLVQVMLTLGIVKEKDVLFWA
In the case of B1, in data set [4], the kcat was 3.67 ± 0.333 s⁻¹.
